Values quoted from earlier work, collected in US20130224131A1, “4-AMIDINO BENZYLAMINES FOR COSMETIC AND/OR DERMATOLOGICAL USE” (DSM IP ASSETS B.V., priority 2007, published 2013).

biological target: urokinase (Homo sapiens, UniProt P00749); details: qualitative statement, described in WO 01/96286

SMILES | urokinase-inhibiting activity
N=C(N)c1ccc(CNC(=O)CNC(=O)[C@@H](CO)NS(=O)(=O)Cc2ccccc2)cc1 [benzylsulfonyl-D-Ser-Gly-4-amidino-benzylamide] | potent and highly specific urokinase-inhibiting activity
N=C(N)c1ccc(CNC(=O)[C@H](CCCCN)NC(=O)[C@@H](CO)NS(=O)(=O)Cc2ccccc2)cc1 [benzylsulfonyl-D-Ser-Lys-(4-amidino-benzylamide)] | potent and highly specific urokinase-inhibiting activity
N=C(N)c1ccc(CNC(=O)C(CCc2ccccc2)NC(=O)[C@@H](CO)NS(=O)(=O)Cc2ccccc2)cc1 (stereo partly drawn) [benzylsulfonyl-D-Ser-homoPhe-(4-amidino-benzylamide)] | potent and highly specific urokinase-inhibiting activity
